Source: US20230174608A1, “Polypeptide Derivative Having Dual Receptor Agonistic Action and Use Thereof” (TIANJIN INSTITUTE OF PHARMACEUTICAL RESEARCH CO., LTD., priority 2020, published 2023)
Where a SMILES comes first, the peptide text is derived from it.

What was measured:
[1] = test system: diet-induced obesity (DIO) mice; assay: DIO model mice, weight after 2 weeks of administration; format: in vivo, C57BL/6N mice; settings: 30 nmol/kg s.c. once a day, 14 days
From the text: Method: C57BL/6N mice were fed with H10060 high-fat diets to obtain diet-induced obesity (DIO) models, and mice in a control group (n=5) were fed with standard diets. One day before the first administration, the mice in the model group were randomly divided into 6 groups according to their weights (within a range of 40.5-50.5 g), i.e., a model control group, a positive control group, and test compound groups (dgc003, dgc004, dgc010, and dgc017), respectively, 5 mice in each group, which were administered once a day by subcutaneous injection. Saline was subcutaneously injected into each mouse in the blank control group and the model control group every day. The administration was performed for 14 days. The positive control drug and the test compounds were administered at a dose of 30 nmol/kg, and the administration volume for each group was 0.005 mL/g weight. The mice were weighed before each administration, and 72-h food intake was weighed every three days.

GLP-1R = biological target: T1, GLP-1R (Homo sapiens, UniProt P43220); assay: GLP-1 receptor-mediated cAMP production in vitro; format: cell-based; settings: HEK293 cell line stably expressing GLP-1R
T1 construct: expressed in transfected cells
T1 sequence (P43220 24-463, species assumed): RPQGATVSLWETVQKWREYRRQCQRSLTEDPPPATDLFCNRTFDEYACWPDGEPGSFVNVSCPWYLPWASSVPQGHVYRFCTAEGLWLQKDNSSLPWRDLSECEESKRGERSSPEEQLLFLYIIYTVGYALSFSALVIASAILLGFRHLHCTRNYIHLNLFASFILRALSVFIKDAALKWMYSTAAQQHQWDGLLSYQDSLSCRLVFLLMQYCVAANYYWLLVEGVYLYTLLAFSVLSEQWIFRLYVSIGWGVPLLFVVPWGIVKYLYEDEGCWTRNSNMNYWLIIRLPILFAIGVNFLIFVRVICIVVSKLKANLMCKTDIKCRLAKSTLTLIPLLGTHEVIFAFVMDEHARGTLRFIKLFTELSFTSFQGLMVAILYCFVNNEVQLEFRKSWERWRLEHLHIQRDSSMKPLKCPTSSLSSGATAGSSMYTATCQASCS
Method in brief: (§1)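 HEK293 cells stably expressing human GLP-1R or GCGR are stimulated with compound for 30 min in the dark in serum-free medium with 0.5 mM IBMX, with test dilutions spanning 1 μM down to 10^−3 nM. cAMP is detected after a 60 min room-temperature reaction as the 665/615 nm ratio.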

[2] = test system: glucose loaded normal mice; assay: Glucose loading test on normal mice after single administration; format: in vivo, Kunming mice
Method in brief: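 Male Kunming mice (20-22 g), 5 per group, fasted 6 h, received compound or semaglutide at 30 nmol/kg or saline. Glucose 2.5 g/kg given intragastrically 60 min post-dose; blood glucose measured 30 min after glucose loading.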

GCGR = biological target: T2, GCGR (Homo sapiens, UniProt P47871); assay: GC receptor-mediated cAMP production in vitro; format: cell-based; settings: HEK293 cell line stably expressing GCGR
T2 construct: expressed in transfected cells
T2 sequence (P47871 26-477, species assumed): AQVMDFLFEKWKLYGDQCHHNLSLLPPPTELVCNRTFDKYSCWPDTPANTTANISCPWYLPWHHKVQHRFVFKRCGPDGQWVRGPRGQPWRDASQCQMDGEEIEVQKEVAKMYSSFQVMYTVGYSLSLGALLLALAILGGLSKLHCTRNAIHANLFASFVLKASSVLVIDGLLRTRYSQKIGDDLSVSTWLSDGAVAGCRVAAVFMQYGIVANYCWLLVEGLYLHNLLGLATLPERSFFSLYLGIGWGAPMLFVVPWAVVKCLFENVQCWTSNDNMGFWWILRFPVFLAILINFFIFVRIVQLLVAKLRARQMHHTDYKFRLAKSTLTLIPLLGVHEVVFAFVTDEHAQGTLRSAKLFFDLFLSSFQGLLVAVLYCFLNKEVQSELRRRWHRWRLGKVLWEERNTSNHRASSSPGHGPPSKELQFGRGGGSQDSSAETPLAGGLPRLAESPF
Method in brief: as §1

**Q.** How did the “Weight decreasing rate by the last administration” value [1] turn out when `CCCCCCCCCCCCCCCC(=O)N[C@@H](CCC(=O)NCCCC[C@H](NC(=O)[C@H](C)NC(=O)[C@H](C)NC(=O)[C@H](CCCCN)NC(=O)[C@H](CCC(=O)O)NC(=O)[C@H](CC(=O)O)NC(=O)[C@H](CC(C)C)NC(=O)[C@H](Cc1ccc(O)cc1)NC(=O)[C@H](CCCCN)NC(=O)[C@H](CO)NC(=O)[C@H](Cc1ccc(O)cc1)NC(=O)[C@H](CC(=O)O)NC(=O)[C@H](CO)NC(=O)[C@@H](NC(=O)[C@H](Cc1ccccc1)NC(=O)[C@@H](NC(=O)CNC(=O)[C@H](CCC(N)=O)NC(=O)C(C)(C)NC(=O)[C@@H](N)Cc1c[nH]cn1)[C@@H](C)O)[C@@H](C)O)C(=O)N[C@@H](CCC(=O)O)C(=O)N[C@@H](Cc1ccccc1)C(=O)N[C@H](C(=O)N[C@@H](C)C(=O)N[C@@H](Cc1c[nH]c2ccccc12)C(=O)N[C@@H](CC(C)C)C(=O)N[C@@H](CCC(=O)O)C(=O)NCC(=O)NCC(N)=O)[C@@H](C)CC)C(=O)O` [dgc017] (HELM PEPTIDE1{H.[Aib].Q.G.T.F.T.S.D.Y.S.K.Y.L.D.E.K.A.A.K.E.F.I.A.W.L.E.G.G.[am]}|PEPTIDE2{[CCCCCCCCCCCCCCCC(=O)[*:2]].[gGlu]}$PEPTIDE1,PEPTIDE2,20:R3-2:R2$$$V2.0; N-terminus assumed) was run?
**A.** Its value is 15.9%.

**Q.** And the EC50 (GLP-1R)?
**A.** Its EC50 is 0.627 nM.

**Q.** What about the “Blood glucose reduction rate (%)” value ([2]; 30 nmol/kg single dose, after glucose loading, versus model control group) of the same compound?
**A.** The value was 39.06%.

**Q.** What about the “Blood glucose level after glucose loading” value ([2]; 30 nmol/kg single dose, glucose 2.5 g/kg intragastric 60 min after administration, measured 30 min after loading, n=5) of the same compound?
**A.** Its value is 10.36 ± 1.87 mmol/L.

**Q.** What about the “Fasting blood glucose level” value ([2]; normal mice fasted 6 h, 30 nmol/kg group, n=5) of the same compound?
**A.** Its value is 3.72 ± 0.37 mmol/L.

**Q.** What about the EC50 (GCGR) of the same compound?
**A.** Its EC50 is 3.95 nM.
